Patent US10689381B2 (priority 2017, dated 2020)
Read-outs that look alike come from different tables or passages of the source.

What was measured:
L1210 = test: cells; assay type: cell-based, mouse
Summary of the method: (§1)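 Compound exposure ran 72 h at six concentrations (0–1000 nM or 0–10000 nM, duplicate) on cells plated at 30,000 cells/mL in 10% FBS DMEM. A closing 37 °C incubation took 15 min (HCT116) or 5 min (L1210).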

HCT116 = test: cells; assay type: cell-based, human; settings: for IC50: read-out: IC50 HCT116; for potency relative to vinblastine (more potent): vinblastine-sensitive cell lines
Summary of the method: as §1

## CCC1(NC(=O)c2ccon2)CC2CN(CCc3c([nH]c4ccccc34)C(C(=O)OC)(c3cc4c(cc3OC)N(C)C3C(O)(C(=O)OC)C(OC(C)=O)C5(CC)C=CCN6CCC43C65)C2)C1 (stereo not shown) [Compound 143]
L1210; Table 5
  IC50: 4.5 nM
HCT116; Table 5
  IC50: 7 nM

## CCC1(NC(=O)C=Cc2ccccc2)CC2CN(CCc3c([nH]c4ccccc34)C(C(=O)OC)(c3cc4c(cc3OC)N(C)C3C(O)(C(=O)OC)C(OC(C)=O)C5(CC)C=CCN6CCC43C65)C2)C1 (stereo not shown) [Compound 108]
L1210; Table 3
  IC50: 0.8 nM
HCT116; Table 3
  IC50: 0.9 nM

## CCC1(NC(=O)C2CCSCC2)CC2CN(CCc3c([nH]c4ccccc34)C(C(=O)OC)(c3cc4c(cc3OC)N(C)C3C(O)(C(=O)OC)C(OC(C)=O)C5(CC)C=CCN6CCC43C65)C2)C1 (stereo not shown) [Compound 145]
L1210; Table 5
  IC50: 460 nM
HCT116; Table 5
  IC50: 450 nM

## CCC1(NC(=O)c2ccc3c(c2)CCO3)CC2CN(CCc3c([nH]c4ccccc34)C(C(=O)OC)(c3cc4c(cc3OC)N(C)C3C(O)(C(=O)OC)C(OC(C)=O)C5(CC)C=CCN6CCC43C65)C2)C1 (stereo not shown) [Compound 161]
L1210; Table 6
  IC50: 0.3 nM
HCT116; Table 6
  IC50: 0.25 nM

## CCC1(NC(=O)c2ccc3cc(OC)ccc3c2)CC2CN(CCc3c([nH]c4ccccc34)C(C(=O)OC)(c3cc4c(cc3OC)N(C)C3C(O)(C(=O)OC)C(OC(C)=O)C5(CC)C=CCN6CCC43C65)C2)C1 (stereo not shown) [Compound 119]
L1210; Table 4
  IC50: 2.5 nM
HCT116; Table 4
  IC50: 3.5 nM

## CC[C@]1(NC(=O)c2cnco2)C[C@H]2CN(CCc3c([nH]c4ccccc34)[C@@](C(=O)OC)(c3cc4c(cc3OC)N(C)[C@H]3[C@@](O)(C(=O)OC)[C@H](OC(C)=O)[C@]5(CC)C=CCN6CC[C@]43[C@@H]65)C2)C1 [Compound 138]
L1210; Table 5
  IC50: 3.9 nM
HCT116; Table 5
  IC50: 3.5 nM

## CC[C@]1(NC(=O)c2cccc(Br)c2)C[C@H]2CN(CCc3c([nH]c4ccccc34)[C@@](C(=O)OC)(c3cc4c(cc3OC)N(C)[C@H]3[C@@](O)(C(=O)OC)[C@H](OC(C)=O)[C@]5(CC)C=CCN6CC[C@]43[C@@H]65)C2)C1 [Compound 52]
L1210; Table 2
  IC50: 5 nM
HCT116; Table 2
  IC50: 6.3 nM

## CC[C@]1(NC(=O)c2ccc3ncoc3c2)C[C@H]2CN(CCc3c([nH]c4ccccc34)[C@@](C(=O)OC)(c3cc4c(cc3OC)N(C)[C@H]3[C@@](O)(C(=O)OC)[C@H](OC(C)=O)[C@]5(CC)C=CCN6CC[C@]43[C@@H]65)C2)C1 [Compound 167]
L1210; Table 6
  IC50: 0.6 nM
HCT116; Table 6
  IC50: 0.6 nM

## CCC1(NC(=O)C2CCN(C(=O)OC(C)(C)C)CC2)CC2CN(CCc3c([nH]c4ccccc34)C(C(=O)OC)(c3cc4c(cc3OC)N(C)C3C(O)(C(=O)OC)C(OC(C)=O)C5(CC)C=CCN6CCC43C65)C2)C1 (stereo not shown) [Compound 147]
L1210; Table 5
  IC50: 50 nM
HCT116; Table 5
  IC50: 45 nM

## CC[C@]1(NC(=O)c2ccc(Br)cc2)C[C@H]2CN(CCc3c([nH]c4ccccc34)[C@@](C(=O)OC)(c3cc4c(cc3OC)N(C)[C@H]3[C@@](O)(C(=O)OC)[C@H](OC(C)=O)[C@]5(CC)C=CCN6CC[C@]43[C@@H]65)C2)C1 [Compound 51]
L1210; Table 2
  IC50: 2.7 nM
HCT116; Table 2
  IC50: 1.4 nM

## CC[C@]1(NC(=O)c2cc(C)c(OCc3ccccc3)c(C)c2)C[C@H]2CN(CCc3c([nH]c4ccccc34)[C@@](C(=O)OC)(c3cc4c(cc3OC)N(C)[C@H]3[C@@](O)(C(=O)OC)[C@H](OC(C)=O)[C@]5(CC)C=CCN6CC[C@]43[C@@H]65)C2)C1 [Compound 100]
L1210; Table 2
  IC50: 30 nM
HCT116; Table 2
  IC50: 30 nM

## CC[C@]1(NC(=O)c2cc(OC)c(OC)c(OC)c2)C[C@H]2CN(CCc3c([nH]c4ccccc34)[C@@](C(=O)OC)(c3cc4c(cc3OC)N(C)[C@H]3[C@@](O)(C(=O)OC)[C@H](OC(C)=O)[C@]5(CC)C=CCN6CC[C@]43[C@@H]65)C2)C1 [Compound 71]
L1210; Table 2
  IC50: 0.09 nM
HCT116; Table 2
  IC50: 0.1 nM

## CCC1(NC(=O)c2ccc3c(c2)C(C)(C)CCC3(C)C)CC2CN(CCc3c([nH]c4ccccc34)C(C(=O)OC)(c3cc4c(cc3OC)N(C)C3C(O)(C(=O)OC)C(OC(C)=O)C5(CC)C=CCN6CCC43C65)C2)C1 (stereo not shown) [Compound 123]
L1210; Table 4
  IC50: 7.4 nM
HCT116; Table 4
  IC50: 7.8 nM

## CCC1(NC(=O)c2cnc3ccccc3c2)CC2CN(CCc3c([nH]c4ccccc34)C(C(=O)OC)(c3cc4c(cc3OC)N(C)C3C(O)(C(=O)OC)C(OC(C)=O)C5(CC)C=CCN6CCC43C65)C2)C1 (stereo not shown) [Compound 151]
L1210; Table 6
  IC50: 0.7 nM
HCT116; Table 6
  IC50: 0.6 nM

## CCC1(NC(=O)c2ccc3c(c2)OCCN3C)CC2CN(CCc3c([nH]c4ccccc34)C(C(=O)OC)(c3cc4c(cc3OC)N(C)C3C(O)(C(=O)OC)C(OC(C)=O)C5(CC)C=CCN6CCC43C65)C2)C1 (stereo not shown) [Compound 176]
L1210; Table 6
  IC50: 0.3 nM
HCT116; Table 6
  IC50: 0.3 nM

## CCC1(NC(=O)c2cccc(C(C)C)c2)CC2CN(CCc3c([nH]c4ccccc34)C(C(=O)OC)(c3cc4c(cc3OC)N(C)C3C(O)(C(=O)OC)C(OC(C)=O)C5(CC)C=CCN6CCC43C65)C2)C1 (stereo not shown) [Compound 33]
L1210; Table 2
  IC50: 7.5 nM
HCT116; Table 2
  IC50: 8.7 nM

## CC[C@]1(NC(=O)c2ccoc2)C[C@H]2CN(CCc3c([nH]c4ccccc34)[C@@](C(=O)OC)(c3cc4c(cc3OC)N(C)[C@H]3[C@@](O)(C(=O)OC)[C@H](OC(C)=O)[C@]5(CC)C=CCN6CC[C@]43[C@@H]65)C2)C1 [Compound 133]
L1210; Table 5
  IC50: 0.7 nM
HCT116
  activity relative to 20′ benzamide Compound 24 (better): roughly 2 fold
  potency relative to vinblastine (more potent): 10 fold
HCT116; Table 5
  IC50: 0.6 nM

## CCC1(NC(=O)C2Cc3ccccc3C2)CC2CN(CCc3c([nH]c4ccccc34)C(C(=O)OC)(c3cc4c(cc3OC)N(C)C3C(O)(C(=O)OC)C(OC(C)=O)C5(CC)C=CCN6CCC43C65)C2)C1 (stereo not shown) [Compound 125]
L1210; Table 4
  IC50: 30 nM
HCT116; Table 4
  IC50: 15 nM

## CCC1(NS(=O)(=O)c2cccc([N+](=O)[O-])c2)CC2CN(CCc3c([nH]c4ccccc34)C(C(=O)OC)(c3cc4c(cc3OC)N(C)C3C(O)(C(=O)OC)C(OC(C)=O)C5(CC)C=CCN6CCC43C65)C2)C1 (stereo not shown) [Compound 182]
L1210; Table 7, C20′ sulfonamides
  IC50: 450 nM
HCT116; Table 7, C20′ sulfonamides
  IC50: 490 nM

## CC[C@]1(NC(=O)c2csc3ccccc23)C[C@H]2CN(CCc3c([nH]c4ccccc34)[C@@](C(=O)OC)(c3cc4c(cc3OC)N(C)[C@H]3[C@@](O)(C(=O)OC)[C@H](OC(C)=O)[C@]5(CC)C=CCN6CC[C@]43[C@@H]65)C2)C1 [Compound 164]
L1210; Table 6
  IC50: 5.2 nM
HCT116; Table 6
  IC50: 5.7 nM

## CC[C@]1(NC(=O)c2ccc(OCc3ccccc3)cc2)C[C@H]2CN(CCc3c([nH]c4ccccc34)[C@@](C(=O)OC)(c3cc4c(cc3OC)N(C)[C@H]3[C@@](O)(C(=O)OC)[C@H](OC(C)=O)[C@]5(CC)C=CCN6CC[C@]43[C@@H]65)C2)C1 [Compound 77]
L1210; Table 2
  IC50: 5.4 nM
HCT116; Table 2
  IC50: 5.7 nM

## CCC1(NC(=O)c2ccc(C)cc2)CC2CN(CCc3c([nH]c4ccccc34)C(C(=O)OC)(c3cc4c(cc3OC)N(C)C3C(O)(C(=O)OC)C(OC(C)=O)C5(CC)C=CCN6CCC43C65)C2)C1 (stereo not shown) [Compound 25]
L1210; Table 2
  IC50: 0.5 nM
HCT116; Table 2
  IC50: 0.45 nM
HCT116
  potency relative to vinblastine (more potent): 10 fold

## CCOc1ccc(C(=O)N[C@@]2(CC)C[C@H]3CN(CCc4c([nH]c5ccccc45)[C@@](C(=O)OC)(c4cc5c(cc4OC)N(C)[C@H]4[C@@](O)(C(=O)OC)[C@H](OC(C)=O)[C@]6(CC)C=CCN7CC[C@]54[C@@H]76)C3)C2)cc1Br [Compound 95]
L1210; Table 2
  IC50: 3.9 nM
HCT116; Table 2
  IC50: 6.2 nM

## CC[C@]1(NC(=O)c2ccc3cc4ccccc4cc3c2)C[C@H]2CN(CCc3c([nH]c4ccccc34)[C@@](C(=O)OC)(c3cc4c(cc3OC)N(C)[C@H]3[C@@](O)(C(=O)OC)[C@H](OC(C)=O)[C@]5(CC)C=CCN6CC[C@]43[C@@H]65)C2)C1 [Compound 127]
L1210; Table 4
  IC50: 40 nM
HCT116; Table 4
  IC50: 60 nM

## CC[C@]1(NC(=O)c2ccc(Cl)c(Cl)c2)C[C@H]2CN(CCc3c([nH]c4ccccc34)[C@@](C(=O)OC)(c3cc4c(cc3OC)N(C)[C@H]3[C@@](O)(C(=O)OC)[C@H](OC(C)=O)[C@]5(CC)C=CCN6CC[C@]43[C@@H]65)C2)C1 [Compound 50]
L1210; Table 2
  IC50: 8.5 nM
HCT116; Table 2
  IC50: 8.7 nM

## CCC1(NC(=O)c2ccc(C3CCCCC3)cc2)CC2CN(CCc3c([nH]c4ccccc34)C(C(=O)OC)(c3cc4c(cc3OC)N(C)C3C(O)(C(=O)OC)C(OC(C)=O)C5(CC)C=CCN6CCC43C65)C2)C1 (stereo not shown) [Compound 43]
L1210; Table 2
  IC50: 40 nM
HCT116; Table 2
  IC50: 30 nM

## CCC1(NC(=O)c2ccc(Oc3ccccc3)cc2)CC2CN(CCc3c([nH]c4ccccc34)C(C(=O)OC)(c3cc4c(cc3OC)N(C)C3C(O)(C(=O)OC)C(OC(C)=O)C5(CC)C=CCN6CCC43C65)C2)C1 (stereo not shown) [Compound 76]
L1210; Table 2
  IC50: 5.2 nM
HCT116; Table 2
  IC50: 6.5 nM

## CCC1(NS(=O)(=O)c2ccccc2[N+](=O)[O-])CC2CN(CCc3c([nH]c4ccccc34)C(C(=O)OC)(c3cc4c(cc3OC)N(C)C3C(O)(C(=O)OC)C(OC(C)=O)C5(CC)C=CCN6CCC43C65)C2)C1 (stereo not shown) [Compound 183]
L1210; Table 7, C20′ sulfonamides
  IC50: 360 nM
HCT116; Table 7, C20′ sulfonamides
  IC50: 420 nM

## CCC1(NC(=O)c2ccc(C#N)c(C)c2)CC2CN(CCc3c([nH]c4ccccc34)C(C(=O)OC)(c3cc4c(cc3OC)N(C)C3C(O)(C(=O)OC)C(OC(C)=O)C5(CC)C=CCN6CCC43C65)C2)C1 (stereo not shown) [Compound 55]
L1210; Table 2
  IC50: 4.8 nM
HCT116; Table 2
  IC50: 6.2 nM

## CC[C@]1(NC(=O)c2ccccc2C)C[C@H]2CN(CCc3c([nH]c4ccccc34)[C@@](C(=O)OC)(c3cc4c(cc3OC)N(C)[C@H]3[C@@](O)(C(=O)OC)[C@H](OC(C)=O)[C@]5(CC)C=CCN6CC[C@]43[C@@H]65)C2)C1 [Compound 27]
L1210; Table 2
  IC50: 55 nM
HCT116; Table 2
  IC50: 50 nM

## CC[C@]1(NC(=O)c2cccc(N3CCOCC3)c2)C[C@H]2CN(CCc3c([nH]c4ccccc34)[C@@](C(=O)OC)(c3cc4c(cc3OC)N(C)[C@H]3[C@@](O)(C(=O)OC)[C@H](OC(C)=O)[C@]5(CC)C=CCN6CC[C@]43[C@@H]65)C2)C1 [Compound 106]
L1210; Table 2
  IC50: 4.8 nM
HCT116; Table 2
  IC50: 2.8 nM

## CCC1(NC(=O)c2ccc3c(c2)CCCCC3)CC2CN(CCc3c([nH]c4ccccc34)C(C(=O)OC)(c3cc4c(cc3OC)N(C)C3C(O)(C(=O)OC)C(OC(C)=O)C5(CC)C=CCN6CCC43C65)C2)C1 (stereo not shown) [Compound 126]
L1210; Table 4
  IC50: 6.1 nM
HCT116; Table 4
  IC50: 4.8 nM
